Source: patent US9827184B2, “Peelable transparent diamond nail-care coat” (LES FINS NETWORK TECHNOLOGY CO.,LTD., priority 2015, dated 2017)

Tests used:
Experiment in all cases: MTT microplate growth inhibition (MIC50) in MH culture medium
Assay type in all cases: cell-based
Conditions in all cases: 96-well plate, 37° C., 24 h, OD 570 nm, unit not given, test concentrations given in μg·ML^−1
[1] = tested on: epidermophyton floccosum
Experimental: (§1) Bacteria (trichophylon rubrum, trichophyton mentagrophytes and epidermophyton fioccosum) are suspended in an MH culture medium with a dispersion concentration of about 10^5 cfu·ML^−1, and bacterium solution is added onto a 96-well plate (100 μL of the bacterium solution is added in each well); and the culture medium is taken as blank control, DMSO is taken as negative control for replacing a test substance, and itraconazole (Xian-Janssen Pharmaceutical Co., Ltd.) is taken as positive control. […] The 96-well plate is placed in an incubator at 37° C. and cultured for 24 h, then 25 μL of PBS containing 4 mg of MTT per mL is added in each well and cultured for 4 h under the same condition, and 100 μL of SDS lysate (95 mL of tri-distilled water+10 g of SDS+5 mL of isopropanol+0.1 mL of concentrated hydrochloric acid) is added in each well and then cultured for 12 h. An OD value is measured by a microplate reader at 570 nm, and an inhibition percent is calculated as follows: [formula]

[2] = tested on: trichophyton mentagrophytes
Experimental: as §1

[3] = tested on: trichophyton rubrum
Experimental: as §1

Row | SMILES | 50% minimum inhibitory concentration (MIC50) for epidermophyton floccosum [1] | 50% minimum inhibitory concentration (MIC50) for trichophyton mentagrophytes [2] | 50% minimum inhibitory concentration (MIC50) for trichophyton rubrum [3]
1 | COc1ccc(-c2cc(=O)c3cc(O)c(OC)c4c3n2OC2OC(C)=C(O)C=C2C4)cc1 (stereo not drawn) [compound of formula I] | 0.82 | 0.60 | 0.63
2 | CCC(C)n1ncn(-c2ccc(N3CCN(c4ccc(OCC5COC(Cn6cncn6)(c6ccc(Cl)cc6Cl)O5)cc4)CC3)cc2)c1=O (stereo not drawn) [itraconazole] | 0.65 | 0.70 | 0.63
